Assay results taken from the supplement of paper PMC10307832.

Experiments:
Experiment in all cases: relative viability (nuclei count vs DMSO), 5 days (fraction); higher = more cells survive
FH535 + Trametinib = compound: CC1=C(C=CC(=C1)[N+](=O)[O-])NS(=O)(=O)C2=C(C=CC(=C2)Cl)Cl [FH535] + CC(=O)Nc1cccc(-n2c(=O)n(C3CC3)c(=O)c3c(Nc4ccc(I)cc4F)n(C)c(=O)c(C)c32)c1 [Trametinib] (partner 0.02 µM)
Summary of the method: (§1)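 Medians of duplicate plates are given as relative viability. That measure is the nuclei count in treated wells divided by the count in vehicle wells. Counts were taken on 4× images of lung cancer cell lines in 1536-well plates, 5 days after pin-tool dosing the day after seeding with one drug alone or a fixed anchor-drug dose plus five library-drug doses (not always all listed) in √10 steps.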

FH535 + Pictilisib = compound: CC1=C(C=CC(=C1)[N+](=O)[O-])NS(=O)(=O)C2=C(C=CC(=C2)Cl)Cl [FH535] + CS(=O)(=O)N1CCN(Cc2cc3nc(-c4cccc5[nH]ncc45)nc(N4CCOCC4)c3s2)CC1 [Pictilisib] (partner 1 µM)
Summary of the method: as §1

FH535 + Crizotinib = compound: CC1=C(C=CC(=C1)[N+](=O)[O-])NS(=O)(=O)C2=C(C=CC(=C2)Cl)Cl [FH535] + C[C@@H](Oc1cc(-c2cnn(C3CCNCC3)c2)cnc1N)c1c(Cl)ccc(F)c1Cl [Crizotinib] (partner 1 µM)
Summary of the method: as §1

FH535 + AZD7762 = compound: CC1=C(C=CC(=C1)[N+](=O)[O-])NS(=O)(=O)C2=C(C=CC(=C2)Cl)Cl [FH535] + NC(=O)Nc1cc(-c2cccc(F)c2)sc1C(=O)N[C@H]1CCCNC1 [AZD7762] (partner 0.2 µM)
Summary of the method: as §1

FH535 + Olaparib = compound: CC1=C(C=CC(=C1)[N+](=O)[O-])NS(=O)(=O)C2=C(C=CC(=C2)Cl)Cl [FH535] + O=C(c1cc(Cc2n[nH]c(=O)c3ccccc23)ccc1F)N1CCN(C(=O)C2CC2)CC1 [Olaparib] (partner 8 µM)
Summary of the method: as §1

Cell Line	relative viability (FH535 + Trametinib; first compound 0.04 µM)	relative viability (FH535 + Trametinib; first compound 0.1265 µM)	relative viability (FH535 + Trametinib; first compound 0.4 µM)	relative viability (FH535 + Trametinib; first compound 1.265 µM)	relative viability (FH535 + Pictilisib; first compound 0.1265 µM)	relative viability (FH535 + Pictilisib; first compound 0.4 µM)	relative viability (FH535 + Pictilisib; first compound 1.265 µM)	relative viability (FH535 + Crizotinib; first compound 0.1265 µM)	relative viability (FH535 + Crizotinib; first compound 0.4 µM)	relative viability (FH535 + Crizotinib; first compound 1.265 µM)	relative viability (FH535 + AZD7762; first compound 0.04 µM)	relative viability (FH535 + AZD7762; first compound 0.1265 µM)	relative viability (FH535 + AZD7762; first compound 0.4 µM)	relative viability (FH535 + AZD7762; first compound 1.265 µM)	relative viability (FH535 + Olaparib; first compound 0.04 µM)	relative viability (FH535 + Olaparib; first compound 0.1265 µM)	relative viability (FH535 + Olaparib; first compound 0.4 µM)	relative viability (FH535 + Olaparib; first compound 1.265 µM)	relative viability (FH535 + Pictilisib; first compound 0.04 µM)	relative viability (FH535 + Crizotinib; first compound 0.04 µM)
NCI-H1944	0.405	0.42	0.398	0.325	0.37	0.34	0.344	1.18	0.962	0.907	0.316	0.527	0.588	0.48	0.382	0.453	0.431	0.308		
LCLC-97TM1	0.175	0.191	0.178	0.203	0.124	0.176	0.206	0.583	0.322	0.296	0.127	0.276	0.278	0.227	0.407	0.342	0.314	0.274		
NCI-H358	0.134	0.143	0.124	0.127	0.338	0.247	0.271	0.576	0.582	0.542	0.495	0.571	0.529	0.252	0.558	0.611	0.589	0.635	0.326	0.482
NCI-H1993	0.57	0.566	0.496	0.52	0.747	0.769	0.709	0.911	0.589	0.609	0.927	0.704	0.626	0.532	0.941	1.03	0.983	0.581	0.679	0.809
NCI-H1975	0.329	0.232	0.287	0.329	0.274	0.296	0.244	1.08	0.948	0.842	0.638	0.793	0.591	0.554	0.868	0.877	0.718	0.624	0.274	1.06
NCI-H441	0.454	0.334	0.428	0.394	0.469	0.443	0.423	0.797	0.768	0.628	1.09	1.32	1.09	1.02	0.516	0.501	0.459	0.439	0.434	0.603
NCI-H1651	0.81	0.78	0.79	0.666	0.504	0.562	0.509	0.81	0.853	0.611	0.368	0.511	0.502	0.466	0.174	0.194	0.188	0.184	0.572	0.856
HARA	0.759	0.711	0.643	0.461	0.665	0.368	0.458	1.08	0.929	0.52	0.19	0.426	0.305	0.358	0.588	0.873	0.829	0.353	0.429	1.06
H3255	0.563	0.604	0.582	0.55	0.466	0.445	0.413	0.806	0.853	0.705	0.806	0.918	0.853	0.788	0.515	0.527	0.514	0.381	0.352	0.896
NCI-H460	0.12	0.152	0.157	0.103	0.338	0.335	0.329	0.991	1.08	0.652	0.616	0.615	0.603	0.337	0.402	0.386	0.379	0.32	0.344	1.04
CAL-12T	0.336	0.438	0.367	0.347	0.362	0.29	0.334	0.691	0.719	0.556	0.594	0.643	0.536	0.397	0.693	0.813	0.612	0.411	0.392	0.817
NCI-H1792	0.493	0.504	0.455	0.394	0.289	0.317	0.256	0.963	0.907	0.632	0.646	0.79	0.539	0.577	0.463	0.329	0.39	0.345	0.251	0.967
NCI-H1437	0.498	0.567	0.386	0.32	0.375	0.427	0.323	0.831	0.772	0.344	1.11	1.13	1.01	0.502	0.608	0.575	0.491	0.336	0.456	0.9
HOP-62	0.374	0.373	0.391	0.355	0.606	0.64	0.676	1.01	0.69	0.988	0.473	0.66	0.416	0.55	0.278	0.36	0.4	0.453	0.505	0.953
EPLC-272H	0.272	0.296	0.299	0.262	0.349	0.299	0.249	1.07	0.868	0.838	0.241	0.226	0.259	0.206	0.766	0.92	0.849	0.636	0.263	0.943
HCC-366	0.379	0.387	0.274	0.34	0.137	0.116	0.125	0.614	0.594	0.354	0.244	0.289	0.307	0.247	0.302	0.333	0.373	0.332	0.132	0.392

Cell Line	relative viability (FH535 + Trametinib; first compound 0.04 µM)	relative viability (FH535 + Trametinib; first compound 0.1265 µM)	relative viability (FH535 + Trametinib; first compound 0.4 µM)	relative viability (FH535 + Trametinib; first compound 1.265 µM)	relative viability (FH535 + Pictilisib; first compound 0.1265 µM)	relative viability (FH535 + Pictilisib; first compound 0.4 µM)	relative viability (FH535 + Pictilisib; first compound 1.265 µM)	relative viability (FH535 + Crizotinib; first compound 0.1265 µM)	relative viability (FH535 + Crizotinib; first compound 0.4 µM)	relative viability (FH535 + Crizotinib; first compound 1.265 µM)	relative viability (FH535 + AZD7762; first compound 0.04 µM)	relative viability (FH535 + AZD7762; first compound 0.1265 µM)	relative viability (FH535 + AZD7762; first compound 0.4 µM)	relative viability (FH535 + AZD7762; first compound 1.265 µM)	relative viability (FH535 + Olaparib; first compound 0.04 µM)	relative viability (FH535 + Olaparib; first compound 0.1265 µM)	relative viability (FH535 + Olaparib; first compound 0.4 µM)	relative viability (FH535 + Olaparib; first compound 1.265 µM)	relative viability (FH535 + Pictilisib; first compound 0.04 µM)	relative viability (FH535 + Crizotinib; first compound 0.04 µM)
HCC-44	1.06	0.986	1.03	0.967	0.556	0.564	0.538	0.755	0.75	0.682	1	0.961	0.898	0.866	0.976	0.929	0.969	0.768	0.67	0.908
NCI-H2347	0.276	0.318	0.3	0.291	0.591	0.639	0.726	0.617	0.807	0.649	0.696	0.819	0.764	0.761	0.525	0.595	0.553	0.498	0.484	0.677
NCI-H838	0.536	0.52	0.452	0.462	0.427	0.379	0.387	0.962	0.797	0.654	0.893	1	0.902	0.891	0.727	0.768	0.66	0.475	0.462	0.959
NCI-H1355	0.397	0.428	0.406	0.329	0.503	0.378	0.33	1.14	0.977	0.555	0.688	0.843	0.727	0.76	0.649	0.796	0.709	0.476	0.362	0.929
NCI-H2170	0.964	0.883	0.752	0.706	0.418	0.315	0.285	1.3	1.19	1.04	0.897	1.06	0.809	0.815	0.624	0.585	0.49	0.389	0.255	1.14
NCI-H2087	0.243	0.152	0.182	0.157	0.885	0.731	0.52	0.774	0.765	0.415	1.24	1.21	1.17	0.78	0.391	0.553	0.516	0.378	0.885	0.96
PC-14	0.652	0.815	0.895	0.693	0.743	0.709	0.655	0.917	0.863	0.889	0.357	0.416	0.245	0.349	0.242	0.324	0.297	0.233	0.73	0.94
LC-2-ad	0.886	0.878	0.88	0.766	0.466	0.162	0.33	0.477	0.458	0.452	0.809	0.828	0.744	0.697	0.74	0.703	0.713	0.526	0.462	0.462
HCC-78	0.694	0.713	0.602	0.665	0.223	0.187	0.204	0.373	0.342	0.311	0.644	0.888	0.618	0.468	0.695	0.764	0.885	0.673	0.193	0.3
LOU-NH91	0.729	0.819	0.75	0.525	0.554	0.48	0.339	0.721	0.698	0.477	0.767	0.779	0.608	0.428	0.876	0.905	0.793	0.421	0.471	0.622
NCI-H1734	0.574	0.671	0.656	0.558	0.523	0.489	0.416	0.691	0.648	0.588	0.562	0.603	0.563	0.554	0.539	0.715	0.635	0.613	0.458	0.625
NCI-H596	0.814	0.864	0.854	0.748	0.385	0.39	0.344	1.02	1.08	0.929	1.04	1.18	0.933	1.05	0.725	0.815	0.733	0.598	0.347	1.02
NCI-H23	0.345	0.448	0.418	0.306	0.41	0.483	0.508	0.555	0.584	0.581	0.22	0.391	0.275	0.307	0.255	0.331	0.3	0.273		
NCI-H647	0.51	0.566	0.424	0.418	0.458	0.434	0.362	1.02	1.1	0.895	0.557	0.519	0.322	0.418	0.586	0.528	0.467	0.509	0.435	1.26
NCI-H1755	0.755	0.809	0.725	0.739	0.449	0.421	0.415	0.859	0.801	0.776	0.418	0.439	0.475	0.444	0.867	0.857	0.8	0.869	0.341	0.931
